{"source": "paper PMC10813753", "about": "(Biology, 2024)", "key": {"[1]": {"tested_on": "telomeric G4 sequence F21T", "experiment": "FRET-based DNA melting assay, telomeric G4 F21T", "type": "binding, human", "conditions": "0.2 μM F21T, renaturing process, K+ buffer", "method": "FRET DNA melting assays were conducted following standard reported procedures. Briefly, the employed oligonucleotides F21T (5′-FAM—(GGG TTA)3GGG—TAMRA-3′) and F10T (5′-FAM—TAT AGC TA TA/Sp18/TA GCT ATA—TAMRA-3′) were dissolved in buffer at 0.25 μM concentration and annealed by heating at 90 °C for 5 min, and then immediately cooling to 0 °C, in the case of F21T, or slowly to rt (F10T) during a period of 3 hours. The solutions were allowed to stand at 4 °C at least overnight.\nTested compounds 1–4 were dissolved in water with up to a maximum 10% DMSO (50 μM stock solution). Each stock solution was then gradually diluted to reach the final concentrations in the assay from 0 to 10 μM and a fixed 0.2 μM concentration of target sequences F21T or F10T. The buffer used for G4 sequence F21T was 10 mM KCl, 90 mM LiCl and 10 mM Li-cacodylate, pH 7.3. The buffer employed for F10T was 100 mM LiCl and 10 mM Li-cacodylate.\nThe melting process program consisted of an incubation step at 24 °C for 5 min and then a temperature ramp (1 °C/min rate) with fluorescence recordings at every degree up to 95 °C. Subsequently, the microplate with the samples (50 μL) was incubated for 5 min at 96 °C and then gradually cooled by using a temperature ramp of −1 °C/min, with fluorescence measurements at every degree down to 25 °C. The melting and refolding (or renaturing) curves were registered based on the change in emission of the FAM (6-carboxyfluorescein) fluorophore, excited at 492 nm and emitting at 516 nm. Melting temperature values (Tm) were determined from replicate experiments using normalized curves and considering mid-transition T1/2 temperatures."}, "[2]": {"tested_on": "G4 Tel22 telomeric quadruplex DNA", "experiment": "Equilibrium dialysis (non-competition and competition), Tel22", "type": "binding, human", "conditions": "for Kapp (Tel22): 10 mM potassium phosphate, 100 mM KCl, pH 7.2", "method": "(§1) Equilibrium dialysis experiments were conducted with unlabeled quadruplex DNA and/or with dsDNA sequences as previously reported. G4 sequence Tel22 is 5′-A(GGGTTA)3GGG-3′, and ds17 is 5′-GGG TTA CTA CGA ACT GG-3′/5′-CCA GTT CGT AGT AAC CC-3′. The buffering system employed contained 10 mM potassium phosphate buffer and 100 mM of KCl (pH = 7.2). DNA solution concentrations were determined at 90 °C through UV-visible spectrophotometry using the λmax values and extinction coefficients provided by IDT®. Extinction coefficients of TSC ligand 1 were calculated in water and in buffer in the absence and in the presence of 1% (w/v) triton X-100. Competition and non-competition dialysis experiments were carried out using the protocol described by Chaires, with minor modifications. Dialysis bags (Biotech Regenerated Cellulose (RC) membrane, part number 133192, Spectrum Laboratories, Inc., Fisher, Madrid, Spain) with a 0.2 mL volume were used, with G4 Tel22 or duplex ds17 DNA at a concentration of 75 μM, in monomeric units. The dialysis bags were placed in a beaker containing 200 mL of a solution of compound 1 (2 μM) in buffer. The beaker was sealed with Parafilm, and the solution was allowed to equilibrate at room temperature (22 °C) for 24 h with continuous stirring. Then, the contents of the dialysis bags were transferred into microcentrifuge tubes, and triton X-100 was added (1% (w/v) final concentration). After 2 h equilibration at room temperature, the total concentration of the ligand (Ct) was determined using UV-visible spectroscopy. The concentration of free compound 1 (Cf) was also determined spectrophotometrically from the dialysate solution. The concentration of the DNA-bound compound (Cb) was then calculated using the equation Cb = Ct − Cf, and Kapp was determined.\nAssays were performed at room temperature with ~2 μM solutions of 1, equilibrated with 75 μM (in monomeric units, tetrads or base pairs, respectively) of the tested DNA sequence for 24 h, in a buffer containing 100 mM KCl. Afterwards, the surfactanct triton X-100 was added to the solutions contained in the dialysis bags, and the recording of the UV-visible spectra was used to determine the concentrations of free and DNA-bound ligands for each situation: Tel22, ds17 or competition experiment Tel22-ds17. The concentration of DNA-bound ligand was determined based on at least two different experiments performed in duplicate or triplicate. […]"}, "ds17 duplex DNA": {"tested_on": "ds17 duplex DNA", "experiment": "Equilibrium dialysis (non-competition and competition), ds17", "type": "binding", "conditions": "for Kapp (ds17): 10 mM potassium phosphate, 100 mM KCl, pH 7.2", "method": "as §1, with “Then, the contents of the dialysis bags were transferred into microcentrifuge tubes, and triton X-100 was added (1% (w/v) final concentration).” left out\nAssays were performed at room temperature with ~2 μM solutions of 1, equilibrated with 75 μM (in monomeric units, tetrads or base pairs, respectively) of the tested DNA sequence for 24 h, in a buffer containing 100 mM KCl. […] The concentration of DNA-bound ligand was determined based on at least two different experiments performed in duplicate or triplicate. […]"}, "[3]": {"conditions": "competition dialysis (1 + Tel22 + ds17)"}, "[4]": {"conditions": "order of magnitude, equilibrium dialysis"}}, "note": "Several values for one entry are separate records, joined by “and”; a condition that tells them apart may be missing. Identical values can stand only once.", "data": [{"substance": "2,2′-(1,10-Phenanthroline-2,9-diyl)-bis(methylene)-bis(hydrazine-1-carbothioamide) [compound 1]", "values": [{"measurement": "ΔTm of telomeric G4 F21T", "setting": "[1]; 5 μM compound", "value": "~ 7 °C"}, {"measurement": "ΔTm of telomeric G4 F21T", "setting": "[1]; 10 μM compound", "value": "~ 12 °C"}, {"measurement": "Kapp (Tel22)", "setting": "[2]; [3]", "value": "1.2 ± 0.1 (M^−1) × 10^−5"}, {"measurement": "binding selectivity Kapp (Tel22)/Kapp (ds17)", "setting": "[2]; competitive assay", "value": "~24", "unit": "fold"}, {"measurement": "Kapp (Tel22)", "setting": "[2]; non-competition dialysis (1 + Tel22), apparent association constant, order 10^5 M^−1", "value": "1.1 ± 0.1 (M^−1) × 10^−5"}, {"measurement": "apparent association constant to telomeric quadruplex", "setting": "[2]; [4]", "value": "~10^5 M^−1"}, {"measurement": "Kapp (ds17)", "setting": "ds17 duplex DNA; [3]", "value": "0.05 ± 0.01 (M^−1) × 10^−5"}, {"measurement": "Kapp (ds17)", "setting": "ds17 duplex DNA; non-competition dialysis (1 + ds17)", "value": "0.06 ± 0.01 (M^−1) × 10^−5"}, {"measurement": "apparent association constant to dsDNA ds17", "setting": "ds17 duplex DNA; [4]", "value": "~10^3 M^−1 and ~ 5 × 10^3 M^−1"}]}]}
